Data taken from article PMC7037732, “Synthesis of Combretastatin A-4 and 3′-Aminocombretastatin A-4 derivatives with Aminoacid Containing Pendants and Study of their Interaction with Tubulin and as Downregulators of the VEGF, hTERT and c-Myc Gene Expression” (Molecules, 2020).

Assays:
[1] = system: HEK-293 (human embryonic kidney cells); test: Inhibition of cell proliferation (MTT), nontumor HEK-293; type: cell-based; conditions: Homo sapiens, HEK293, 48 h, Table 2; 48 h of treatment (footnote); average ±SD of three experiments
[2] = system: hTERT gene; test: hTERT gene expression by RT-qPCR in HT-29 cells; type: cell-based, human; conditions: Homo sapiens, HT-29, 48 h, 7 nM, control 100
Method in brief: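 HT-29 cells seeded at 1.5 × 10^5 per well, after 24 h exposed to compounds for 48 h at fixed single concentrations (15 μM for CA-4, otherwise nM to μM per derivative). Total RNA reverse-transcribed with oligo(dT)15; genes quantified by TaqMan RT-qPCR, β-actin as reference.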

[3] = system: HT-29 (human colon adenocarcinoma); test: Inhibition of cell proliferation (MTT), HT-29; type: cell-based; conditions: Homo sapiens, HT-29, 48 h, Table 2; 48 h of treatment (footnote); average ±SD of three experiments
[4] = system: MCF-7 (breast adenocarcinoma); test: Inhibition of cell proliferation (MTT), MCF-7; type: cell-based, human; conditions: Homo sapiens, MCF7, 48 h, Table 2; 48 h of treatment (footnote); average ±SD of three experiments
[5] = system: A-549 cells; test: Cell cycle distribution by flow cytometry; type: cell-based, human; conditions: A-549, 24 h
Method in brief: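 A-549 cells were harvested, fixed in cold 70% ethanol (30 min, −20 °C), then stained with 50 µg/mL propidium iodide plus 100 µg/mL RNase A in PBS for 20 min at room temperature in the dark. Flow cytometry used 488 nm excitation and 620 nm emission, giving the percentage of cells in G2/M.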

With `COc1ccc(/C=C\c2cc(OC)c(OC)c(OC)c2)cc1NC(=O)[C@@H](N)C(C)O` (some centres unmarked) [Compound 8.7] the IC50 [1] was 14 ± 3 nM, the mrna remaining at 0.007 µM [2] was 81% and the IC50 [3] was 8 ± 2 nM. It also gave an IC50 [4] of 12 ± 1 nM, a G0/G1 ([5]; 2 µM) of 31 ± 1% and a G2/M ([5]; 2 µM) of 51 ± 2%. The S ([5]; 2 µM) was 18 ± 1% and the “cells accumulated in the G2/M phase” value ([5]; concentration per compound as in Tables 6 and 7, control 14%) was “more than 50%”.
